Measurements reported in ChEMBL document CHEMBL3627710, “Mitochondrial targeted β-lapachone induces mitochondrial dysfunction and catastrophic vacuolization in cancer cells” (Bioorg Med Chem Lett, 2015).
Active and inactive are the calls of the source. No cut-off for these calls is given here.

Experiments:
[1] = test system: A549; assay: Cytotoxicity against human A549 cells assessed as decrease in cell viability after 24 hrs by Celltiter-Blue assay; format: functional, cell-based
[2] = test system: A549; assay: Cytotoxicity against human A549 cells assessed as vacuoles formation at 6 uM after 20 hrs by phase contrast microscopy; format: functional, cell-based
[3] = test system: A549; assay: Induction of apoptosis in human A549 cells assessed as viable cells by annexin-V/PI staining analysis (reference value: 97.6%); format: functional
[4] = test system: A549; assay: Induction of apoptosis in human A549 cells assessed as early apoptotic cells by annexin-V/PI staining analysis (reference value: 1.1%); format: functional
[5] = test system: A549; assay: Induction of apoptosis in human A549 cells assessed as late apoptotic cells by annexin-V/PI staining analysis (reference value: 1.0%); format: functional
[6] = test system: A549; assay: Induction of apoptosis in human A549 cells assessed as necrotic cells by annexin-V/PI staining analysis (reference value: 0.3%); format: functional
[7] = test system: A549; assay: Effect on oligomycin-induced inhibition of mitochondrial respiration in human A549 cells assessed as oxygen consumption rate by extracellular flux analyzer; format: functional, cell-based
[8] = test system: A549; assay: Induction of autophagy in human A549 cells assessed as increase in LC3-2 expression by western blot analysis; format: functional, cell-based
[9] = test system: WM983B; assay: Cytotoxicity against human WM983B cells assessed as decrease in cell viability at 2 to 10 uM after 24 hrs by Celltiter-Blue assay; format: functional, cell-based
[10] = test system: PEO1; assay: Cytotoxicity against human PEO1 cells assessed as decrease in cell viability at 2 to 10 uM after 24 hrs by Celltiter-Blue assay; format: functional, cell-based
[11] = test system: MDA-MB-231; assay: Cytotoxicity against human MDA-MB-231 cells assessed as decrease in cell viability at 2 to 10 uM after 24 hrs by Celltiter-Blue assay; format: functional, cell-based
[12] = test system: A549; assay: Cytotoxicity against human A549 cells assessed as decrease in cell viability at 10 uM for 4 hrs measured after 3 days by Celltiter-Blue assay; format: functional, cell-based
[13] = Cytotoxicity against human IMR90 cells assessed as slight decrease in cell viability at 10 uM for 4 hrs measured after 3 days by Celltiter-Blue assay; format: cell-based; settings: imr-90, 10 µM
[14] = test system: A549; assay: Induction of ROS generation in human A549 cells at 6 uM for 16 hrs by DCF dye based flow cytometry; format: functional, cell-based
[15] = test system: A549; assay: Induction of ROS generation in human A549 cells at 6 uM for 16 hrs by MitoSox dye based flow cytometry; format: functional, cell-based
[16] = test system: A549; assay: Effect on mitochondrial morphology in human A549 cells assessed as onion skin-like structures of mitochondria by electron microscopy; format: functional, cell-based
[17] = test system: A549; assay: Effect on mitochondrial morphology in human A549 cells assessed as vacuoles formation by electron microscopy; format: functional, cell-based

Compound	inhibition [1]	Activity [2]	Activity [3] [%]	Activity [4] [%]	Activity [5] [%]	Activity [6] [%]	Activity [7]	Activity [8]	inhibition [9]	inhibition [10]	inhibition [11]	inhibition [12]	Activity [13]	Activity [14]	Activity [15]	Activity [16]	Activity [17]
CC1(C)OC2=C(CC1O)C(=O)C(=O)c1ccccc12 (stereo not given)	Dose-dependent effect	inactive	89.2	4	5.7	1.1	Active	inactive									
CC(C)C[C@@H](/C=C/[C@H](Cc1ccccc1)C(=O)N1CCC[C@H]1C(=O)N[C@H](C(=O)N[C@@H](CCCNC(=O)OCc1ccccc1)C(=O)NCCC(=O)OC1CC2=C(OC1(C)C)c1ccccc1C(=O)C2=O)C(C)C)NC(=O)OC(C)(C)C (stereo not given in full)	Dose-dependent effect	Active	60.9	3.9	31.5	3.7	inactive	Active	Active	Active	Active	Active	Toxic	Active	Active	Active	Active
